Results from patent publication US7999136B2 (priority 2007, dated 2011).

Key:
[1] = tested on: Erysiphe graminis f. sp. tritici; experiment: Test of preventive effect on wheat powdery mildew; assay type: in vivo; details: wheat (Shirogane), foliage application 500 ppm, 7 days after inoculation
Method: (§1) The controlling effect was evaluated by visually observing the area or lesion spots on each of test plants at the time of investigation and comparing the area of lesion spots on a plant treated with the present compound with that on an untreated plant.
Test of Preventive Effect on Wheat Powdery Mildew (Erysiphe graminis f. sp. tritici)
Each of plastic pots was filled with sandy loam and sown with wheat (cultivar: Shirogane), followed by growing in a greenhouse for 10 days. The present compound 8 was formulated into a flowable formulation according to Formulation Example 6. The flowable formulation was diluted to a predetermined concentration (500 ppm) with water, and foliage application of the dilution was carried out so that the dilution adhered sufficiently to the surfaces of leaves of the grown wheat young seedling. After the foliage application, the plant was air-dried and then inoculated by sprinkling with spores of Erysiphe graminis f. sp. tritici. After the inoculation, the plant was held in a greenhouse at 23° C. for 7 days and the area of lesion spots was investigated.

[2] = tested on: Puccinia recondita f. sp. tritici; experiment: Test of curative effect on wheat leaf rust; assay type: in vivo; details: wheat (Shirogane), foliage application 500 ppm, curative (1 day after inoculation), 6 days after application
Method: as §1
Test of Curative Effect on Wheat Leaf Rust (Puccinia recondita f. sp. tritici)
Each of plastic pots was filled with sandy loam and sown with wheat (cultivar: Shirogane), followed by growing in a greenhouse for 9 days. The plant was inoculated by sprinkling with spores of Puccinia recondita f. sp. tritici. After the inoculation, the plant was held under darkness and high humidity conditions at 23° C. for 1 day and then air-dried to give a seedling infected with Puccinia recondita f. sp. tritici. The present compound 10 was formulated into a flowable formulation according to Formulation Example 6. The flowable formulation was diluted to a predetermined concentration (500 ppm) with water, and foliage application of the dilution was carried out so that the dilution adhered sufficiently to the surfaces of leaves of the above plant. After the foliage application, the plant was air-dried and held under lighting conditions for 6 days, and then the area of lesions was investigated.

Row | SMILES | area of lesion spots on the treated plant relative to that on an untreated plant [1] [%] | area of lesion spots on the treated plant relative to that on an untreated plant [2] [%]
1 | C#CCOc1cc(F)c(C(=O)NCC2CCCCC2)cc1F [compound 8] | ≤ 30 | 
2 | C#CCOc1cc(F)c(C(=O)NC(C)C(C)C)cc1F (centres unmarked) [compound 10] |  | ≤ 30
